The subject of the assay is EPO-Receptor down stream signaling pathway in TF-1 or UT-7 cells. Description: In vitro signaling (EPO-R activation). It is filed as cell-based. On the procedure: UT-7 cells were grown in Minimal Essential Medium Alpha (MEM-α) containing 20% FBS, 1.5 g/L NaHCO3, 5 ng/ml GM-CSF, and 100U Penicillin/100 ug/ml Streptomycin Sulfate (“P/S”), in T150 flasks (60 ml/flask) at 37° C., 5% CO2 to a density of no more than 5×10^5 cells/ml. The cells were starved overnight in MEM-α containing 10% FBS, 1.5 g/L NaHCO3 and P/S in T150 flasks (60ml/flask) at a density of 5×10^5 cells/ml, in 5% CO2, 37° C. The cells were then centrifuged in a swinging-bucket rotor at 200×g for 5 minutes at room temperature. The supernatant was removed, and the cells pooled into one 50 ml conical tube. The cells were washed twice with serum-free medium (MEM-alpha containing 1.5 g/L NaHCO3 and P/S). After the last wash, the cells were resuspended to a density of 1×10^7 cells/ml in serum-free medium. The cells were then placed in 15 ml conical tubes in 1 ml aliquots and incubated with the caps loosened for 1 hour at 37° C., 5% CO2. Every 10 minutes, the lower portion of each tube was tapped (flicked) several times to prevent the cells from settling (please note, this step is very important!)
It was also observed that EPO-R was phosphorylated when stimulated with non-peptide EPO-R modulators. (See FIG. 4) […]

For the compound `Cc1ccc(Cl)cc1Nc1nc2nc(C)c(NCC3CC3)cn2n1` [Compound E5], the “activation of EPO-R” value is recorded as “activation of EPO-R”.

Source of the values: patent US20040116346A1, “Affinity small molecules for the EPO receptor” (priority 2002, published 2004).
